Columns and labels:
Assay in all cases: relative viability (nuclei count vs DMSO), 5 days (fraction); higher = more cells survive
[1] = compound: CC(C)CCN1c2nc(Nc3cc(F)c(O)c(F)c3)ncc2N(C)C(=O)C1C [BI-D1870] + COc1cc2c(Oc3ccc(NC(=O)C4(C(=O)Nc5ccc(F)cc5)CC4)cc3F)ccnc2cc1OCCCN1CCOCC1 [Foretinib] (partner 0.25 µM)
Procedure, shortened: (§1)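 Each reported value is a median over duplicate plates. It expresses relative viability: treated-well nuclei count divided by vehicle-well nuclei count. Lung cancer cell lines in 1536-well plates were dosed by pin tool a day after seeding, alone with one drug or with a fixed anchor-drug dose plus five library-drug doses (not always all listed) in √10 steps, and nuclei were counted after 5 days.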

[2] = compound: CC(C)CCN1c2nc(Nc3cc(F)c(O)c(F)c3)ncc2N(C)C(=O)C1C [BI-D1870] + O=C(CCCCCCC(=O)Nc1ccccc1)NO [Vorinostat] (partner 1 µM)
Procedure, shortened: as §1

[3] = compound: O=c1ncccn1[C@@H]1O[C@H](CO)[C@@H](O)[C@H]1O [Zebularine] + CC(=O)Nc1cccc(-n2c(=O)n(C3CC3)c(=O)c3c(Nc4ccc(I)cc4F)n(C)c(=O)c(C)c32)c1 [Trametinib] (partner 0.02 µM)
Procedure, shortened: as §1

[4] = compound: O=c1ncccn1[C@@H]1O[C@H](CO)[C@@H](O)[C@H]1O [Zebularine] + CC1(C)CCC(c2ccc(Cl)cc2)=C(CN2CCN(c3ccc(C(=O)NS(=O)(=O)c4ccc(N[C@H](CCN5CCOCC5)CSc5ccccc5)c(S(=O)(=O)C(F)(F)F)c4)cc3)CC2)C1 [Navitoclax] (partner 0.5 µM)
Procedure, shortened: as §1

| Cell Line | relative viability ([1]; first compound 0.04 µM) | relative viability ([1]; first compound 0.1265 µM) | relative viability ([1]; first compound 0.4 µM) | relative viability ([1]; first compound 1.265 µM) | relative viability ([1]; first compound 4 µM) | relative viability ([2]; first compound 0.04 µM) | relative viability ([2]; first compound 0.1265 µM) | relative viability ([2]; first compound 0.4 µM) | relative viability ([2]; first compound 1.265 µM) | relative viability ([2]; first compound 4 µM) | relative viability ([3]; first compound 1 µM) | relative viability ([3]; first compound 3.162 µM) | relative viability ([3]; first compound 10 µM) | relative viability ([3]; first compound 31.62 µM) | relative viability ([3]; first compound 100 µM) | relative viability ([4]; first compound 1 µM) | relative viability ([4]; first compound 3.162 µM) | relative viability ([4]; first compound 10 µM) | relative viability ([4]; first compound 31.62 µM) | relative viability ([4]; first compound 100 µM) |
| --- | --- | --- | --- | --- | --- | --- | --- | --- | --- | --- | --- | --- | --- | --- | --- | --- | --- | --- | --- | --- |
| 201T | 1.22 | 1.02 | 1 | 1.29 | 1.05 | 1.01 | 0.91 | 0.922 | 0.914 | 0.932 | 0.793 | 0.767 | 0.647 | 0.741 | 0.719 | 1.21 | 1.21 | 0.981 | 1.19 | 1.18 |
| A549 | 1.08 | 0.958 | 1.01 | 0.963 | 0.747 | – | – | – | – | – | – | – | – | – | – | 1.24 | 1.12 | – | 0.913 | 0.206 |
| A-427 | 1.14 | 0.895 | 0.991 | 1.11 | 1.13 | 0.917 | 0.843 | 0.817 | 0.807 | 0.501 | 0.763 | 0.746 | 0.698 | 0.448 | 0.267 | 0.974 | 0.932 | 0.563 | 0.483 | 0.205 |
| ABC-1 | 1.16 | 0.984 | 1.1 | 1.42 | 0.913 | 1.2 | 1.01 | 1.07 | 1.2 | 0.535 | – | – | – | – | – | – | – | – | – | – |
| BEN | 0.654 | 0.609 | 0.76 | 1.16 | 0.77 | 0.538 | 0.504 | 0.595 | 0.628 | 0.534 | 0.996 | 0.994 | 0.781 | 0.491 | 0.49 | 0.0641 | 0.0628 | 0.162 | 0.0748 | 0.0383 |
| CAL-12T | 1.29 | 0.831 | 1.11 | 1.23 | 0.889 | 1.07 | 0.675 | 0.716 | 0.666 | 0.352 | 0.381 | 0.338 | 0.309 | 0.328 | 0.319 | 1.53 | 1.32 | – | 1.28 | 0.918 |
| COR-L23 | 1.01 | 0.894 | 0.938 | 1.01 | 0.905 | 0.615 | 0.402 | 0.494 | 0.5 | 0.269 | 0.642 | 0.602 | 0.463 | 0.575 | 0.241 | 1.02 | 1.15 | 0.323 | 0.558 | 0.218 |
| COR-L 105 | 1.29 | 1.12 | 1.1 | 1.47 | 1.12 | 0.804 | 0.837 | 0.77 | 0.875 | 0.765 | 0.517 | 0.394 | 0.439 | 0.459 | 0.396 | 0.642 | 0.738 | 0.674 | 0.768 | 0.747 |
| Calu-6 | 0.929 | 0.789 | 0.87 | 0.774 | 0.561 | – | – | – | – | – | – | – | – | – | – | 1.03 | 0.825 | 0.649 | 0.647 | 0.225 |
| ChaGo-K-1 | 1.01 | 0.85 | 0.857 | 1.04 | 0.956 | 0.8 | 0.703 | 0.711 | 0.72 | 0.641 | 0.913 | 0.874 | 0.438 | 0.246 | 0.204 | 1.18 | 0.891 | 0.562 | 0.538 | 0.292 |
| EBC-1 | 0.103 | 0.119 | 0.105 | 0.136 | 0.0927 | – | – | – | – | – | – | – | – | – | – | 0.398 | 0.353 | 0.376 | 0.337 | 0.37 |
| EKVX | 1.3 | 0.593 | 0.619 | 0.935 | 0.371 | 0.779 | 0.707 | 0.64 | 0.814 | 0.703 | 0.51 | 0.328 | – | 0.294 | 0.321 | 1.03 | 0.755 | – | 0.947 | 1.03 |
| EMC-BAC-2 | 1.07 | 0.875 | 0.918 | 1.09 | 1.02 | 0.495 | 0.519 | 0.397 | 0.461 | 0.413 | 0.97 | 0.9 | 0.766 | 0.901 | 0.941 | 1.35 | 1.15 | 0.683 | 1.28 | 1.3 |
| EPLC-272H | 0.786 | 0.539 | 0.602 | 0.612 | 0.508 | 0.523 | 0.663 | 0.484 | 0.297 | 0.148 | 0.348 | – | 0.258 | 0.223 | 0.352 | 1.45 | – | – | 1.26 | 0.639 |
| H3255 | 0.784 | 0.915 | 0.953 | 1.09 | 0.849 | 0.88 | 0.816 | 0.761 | 0.889 | 0.802 | 0.635 | 0.65 | – | 0.665 | 0.599 | 0.627 | 0.453 | – | 0.36 | 0.409 |
| HARA | 0.872 | 0.855 | 0.867 | 0.819 | 1.02 | 0.542 | 0.405 | 0.641 | 0.614 | 0.495 | 1.03 | 0.458 | 0.48 | 0.688 | 0.651 | 1.14 | 1.13 | – | 1.1 | 0.718 |
